This is an account of results in patent US8883782B2, “Spiro-tetracyclic ring compounds as beta-secretase modulators and methods of use” (Amgen Inc., priority 2010, dated 2014).

Experiment [1] deals with Aβ40 in conditioned medium of cells stably expressing Amyloid Precursor Protein (APP). In words: In vitro BACE cell-based assay (Aβ40 in conditioned medium, sandwich ELISA). Particulars: read-out: HEK cell assay. As for the experimental part: In Vitro BACE Cell-Based Assay
The cell-based assay measures inhibition or reduction of Aβ40 in conditioned medium of test compound treated cells expressing amyloid precursor protein.
Cells stably expressing Amyloid Precursor Protein (APP) were plated at a density of 40K cells/well in 96 well plates (Costar). The cells were cultivated for 24 hours at 37° C. and 5% CO2 in DMEM supplemented with 10% FBS. The test compounds were then added to cells in 10-point dose response concentrations with the starting concentration being either 100 μM or 10 μM. The compounds were diluted from stock solutions in DMSO and the final DMSO concentration of the test compounds on cells was 0.1%. […] The IC50 of the compound was calculated from the percent of control or percent inhibition of Aβ 40 as a function of the concentration of the test compound.
The sandwich ELISA to detect Aβ 40 was performed in 96 well microtiter plates, which were pre-treated with goat anti-rabbit IgG (Pierce). The capture and detecting antibody pair that were used to detect Aβ 40 from cell supernatants were affinity purified pAb40 (Biosource) and biotinylated 6E10 (Signet Labs Inc.), respectively. The optimal concentration for the pAb40 antibody was 3 μg/ml in Superblock/TBS (Pierce) that was supplemented with 0.05% Tween 20 (Sigma).
Cellular supernatants were incubated with the capture antibody for 3 h at 4° C., followed by 3 wash steps in TBS-tween (0.05%). The detecting antibody incubation was for 2 h at 4° C., again followed by the wash steps as described previously. The final readout of the ELISA is Time-Resolved Fluorescence (counts per minute) using Delfia reagents Streptavidin-Europium and Enhancement solutions (Perkin Elmer) and the Victor 2 multilabel counter (Perkin Elmer).

Experiment [2] addresses Beta Secretase enzyme (BACE) (Homo sapiens, UniProt P56817). In words: In vitro enzymatic BACE FRET (fluorescence resonance energy transfer) assay. In kind it is biochemical. Particulars: average IC50, enzyme assay; read-out: BACE 1 FRET assay. In short, it runs like this:
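Cleavage of a 50 nM fluorophore/quencher peptide FRET substrate by BACE for 1 h in 0.05 M acetate pH 4.2, 10% DMSO, 100 uM genapol. Reaction stopped with Tris to neutral pH before fluorescence reading.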

Setting [3] is: Homo sapiens, HEK293, average IC50, HEK cells.
Setting [4] is: Homo sapiens, HEK293, average IC50.

Like-named read-outs stand apart in the source and are kept apart here.

Chain of Beta Secretase enzyme (BACE) (P56817 46-501, species assumed): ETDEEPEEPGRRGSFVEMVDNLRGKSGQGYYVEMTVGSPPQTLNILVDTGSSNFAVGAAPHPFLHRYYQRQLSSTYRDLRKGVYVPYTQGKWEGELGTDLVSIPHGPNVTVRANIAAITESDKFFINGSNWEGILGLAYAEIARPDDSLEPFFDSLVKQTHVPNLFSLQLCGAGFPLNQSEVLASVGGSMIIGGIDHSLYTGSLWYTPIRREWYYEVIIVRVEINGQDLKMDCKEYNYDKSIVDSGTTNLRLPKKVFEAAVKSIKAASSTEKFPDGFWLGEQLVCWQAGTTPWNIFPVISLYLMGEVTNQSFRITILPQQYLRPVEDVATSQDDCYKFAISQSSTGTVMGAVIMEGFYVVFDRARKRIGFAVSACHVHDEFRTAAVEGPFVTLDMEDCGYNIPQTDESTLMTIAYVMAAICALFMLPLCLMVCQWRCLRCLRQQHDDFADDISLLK

In the case of `COc1ccncc1-c1ccc2c(c1)[C@@]1(COC(N)=N1)c1cc(Cl)ncc1O2` [Example 652, (5S)-3-chloro-7-(4-methoxy-3-pyridinyl)spiro[chromeno[2,3-c]pyridine-5,4′-[1,3]oxazol]-2′-amine], the IC50 worked out at 2170 nM in experiment [1] (setting [3]) and 1220 nM in experiment [2].
As to `Cn1cc(-c2cc3c(cn2)Oc2ccc(-c4cncc(Cl)c4)cc2[C@@]32COC(N)=N2)cn1` [Example 232, (5S)-7-(5-chloro-3-pyridinyl)-3-(1-methyl-1H-pyrazol-4-yl)spiro[chromeno[2,3-c]pyridine-5,4′-[1,3]oxazol]-2′-amine], the IC50 in experiment [1] (setting [4]) is 7.4 nM; in experiment [2], 1.3 nM.
For the molecule `CC#Cc1cnc(F)c(-c2ccc3c(c2)[C@@]2(COC(N)=N2)c2cc(C#CC4(C)COC4)cnc2O3)c1` [Example 955, (5S)-7-(2-fluoro-5-(1-propyn-1-yl)-3-pyridinyl)-3-((3-methyl-3-oxetanyl)ethynyl)spiro[chromeno[2,3-b]pyridine-5,4′-[1,3]oxazol]-2′-amine], the IC50 in experiment [1] (setting [3]) was 2 nM; in experiment [2], 0.5 nM.
On to `NC1=N[C@@]2(CO1)c1cc(-c3cccnc3F)ccc1Oc1cnc(-c3ccnc(C(F)(F)F)c3)cc12` [Example 545, (5S)-7-(2-fluoro-3-pyridinyl)-3-(2-(trifluoromethyl)-4-pyridinyl)spiro[chromeno[2,3-c]pyridine-5,4′-[1,3]oxazol]-2′-amine], for which the IC50 in experiment [1] (setting [3]) worked out at 406 nM; in experiment [2], 5.6 nM.
For `NC1=N[C@@]2(CO1)c1cc(-c3cccnc3F)ccc1Oc1c2cc(C2=CCOCC2)c(F)c1F` [Example 1011, (4S)-2′-(3,6-dihydro-2H-pyran-4-yl)-3′,4′-difluoro-7′-(2-fluoro-3-pyridinyl)spiro[1,3-oxazole-4,9′-xanthen]-2-amine], the IC50 in experiment [1] (setting [4]) amounted to 17 nM; in experiment [2], 0.5 nM.
For `N#Cc1cncc(-c2ccc3c(c2)[C@@]2(COC(N)=N2)c2cc(C4=CCOCC4)ccc2O3)c1` [Example 190, 5-((4R)-2-amino-7′-(3,6-dihydro-2H-pyran-4-yl)spiro[1,3-oxazole-4,9′-xanthen]-2′-yl)-3-pyridinecarbonitrile], in that order: 23.1 nM and 10.3 nM.
With `CC1(C#Cc2cnc3c(c2)[C@]2(COC(N)=N2)c2cc(-c4cncc(F)c4)c(F)cc2O3)COC1` [Example 623, (5S)-8-fluoro-7-(5-fluoro-3-pyridinyl)-3-((3-methyl-3-oxetanyl)ethynyl)spiro[chromeno[2,3-b]pyridine-5,4-[1,3]oxazol]-2′-amine], the IC50 in experiment [1] (setting [3]) is 9 nM; in experiment [2] it was 0.9 nM.
For `COCC#Cc1cncc(-c2ccc3c(c2)C2(COC(N)=N2)c2cc(OC)cc(F)c2O3)c1` (stereo not drawn) [Example 843, 4′-fluoro-2′-methoxy-7′-(5-(3-methoxy-1-propyn-1-yl)-3-pyridinyl)spiro[1,3-oxazole-4,9′-xanthen]-2-amine], the IC50 in experiment [1] (setting [4]) amounted to 57 nM; in experiment [2] it was 8.8 nM.
For the molecule `COC(C)(C)COc1cnc2c(c1)[C@]1(COC(N)=N1)c1cc(-c3cccc(C(F)(F)F)c3)ccc1O2` [Example 317, (5S)-3-(2-methoxy-2-methylpropoxy)-7-(3-(trifluoromethyl)phenyl)spiro[chromeno[2,3-b]pyridine-5,4′-[1,3]oxazol]-2′-amine], the IC50 worked out at 23.9 nM in experiment [1] (setting [4]) and 2.5 nM in experiment [2].
With `NC1=N[C@@]2(CO1)c1cc(O)ccc1Oc1ncc(C3=CCOCC3)cc12` [Example 969, (5S)-2′-amino-3-(3,6-dihydro-2H-pyran-4-yl)spiro[chromeno[2,3-b]pyridine-5,4′-[1,3]oxazol]-7-ol], the IC50 in experiment [1] (setting [3]) is ≥ 10000 nM; in experiment [2] it was 835 nM.
For `NC1=N[C@@]2(CO1)c1cc(-c3cccnc3F)ccc1Oc1c2ccnc1F` [Example 658, (5S)-1-fluoro-7-(2-fluoro-3-pyridinyl)spiro[chromeno[2,3-c]pyridine-5,4′-[1,3]oxazol]-2′-amine], in that order: 846 nM and 27.2 nM.
Turning to `COCC1SC(N)=NC12c1cc(-c3cccnc3F)ccc1Oc1c(F)cc(OC)cc12` [Example 1089, (4S/R,5S)-4′-fluoro-7′-(2-fluoropyridin-3-yl)-2′-methoxy-5-(methoxymethyl)-5H-spiro[thiazole-4,9′-xanthen]-2-amine], the figures for the IC50 in experiment [1] (average IC50) and in experiment [2] were 923 nM and 3.3 nM, respectively.
Take `COc1cncc(-c2ccc3c(c2)[C@@]2(COC(N)=N2)c2cc(C4=CCOCC4)cnc2O3)c1` [Example 459, (5S)-3-(3,6-dihydro-2H-pyran-4-yl)-7-(5-methoxy-3-pyridinyl)spiro[chromeno[2,3-b]pyridine-5,4′-[1,3]oxazol]-2′-amine]: the figures for the IC50 in experiment [1] (setting [3]) and in experiment [2] were 6.2 nM and 2.2 nM, respectively.
On to `NC1=N[C@@]2(CS1)c1cc(-c3cnccc3F)ccc1Oc1ncc(C3=CCCOC3)cc12` [Example 773, (5S)-3-(5,6-dihydro-2H-pyran-3-yl)-7-(4-fluoro-3-pyridinyl)spiro[chromeno[2,3-b]pyridine-5,4′-[1,3]thiazol]-2′-amine], for which the IC50 is 14 nM in experiment [1] (setting [4]) and 0.8 nM in experiment [2].
For `COc1cc(F)c2c(c1)[C@]1(COC(N)=N1)c1cc(-c3cncc(C#CC(C)(C)OC)c3)ccc1O2` [Example 823, (4S)-4′-fluoro-2′-methoxy-7′-(5-(3-methoxy-3-methyl-1-butyn-1-yl)-3-pyridinyl)spiro[1,3-oxazole-4,9′-xanthen]-2-amine], in that order: 4300 nM and 101 nM.
With `NC1=N[C@@]2(CO1)c1cc(-c3cccnc3F)ccc1Oc1c(F)cc(C3=C(Cl)COCC3)cc12` [Example 805, (4S)-2′-(5-chloro-3,6-dihydro-2H-pyran-4-yl)-4′-fluoro-7′-(2-fluoro-3-pyridinyl)spiro[1,3-oxazole-4,9′-xanthen]-2-amine], the values for the IC50 in experiment [1] (setting [4]) and in experiment [2] were 3 nM and 0.2 nM, respectively.
For the molecule `N#Cc1cc(-c2ccc3c(c2)[C@@]2(COC(N)=N2)c2cc(-c4ccnc(F)c4)cnc2O3)ccc1F` [Example 786, 5-((5S)-2′-amino-3-(2-fluoro-4-pyridinyl)spiro[chromeno[2,3-b]pyridine-5,4′-[1,3]oxazol]-7-yl)-2-fluorobenzonitrile], the IC50 was 41 nM in experiment [1] (setting [4]) and 10.5 nM in experiment [2].
On to `N#Cc1ccncc1-c1ccc2c(c1)[C@@]1(COC(N)=N1)c1cc(C3=CCOCC3)ncc1O2` [Example 656, 3-((5S)-2′-amino-3-(3,6-dihydro-2H-pyran-4-yl)spiro[chromeno[2,3-c]pyridine-5,4′-[1,3]oxazol]-7-yl)-4-pyridinecarbonitrile], for which the IC50 stood at 66 nM in experiment [1] (setting [3]) and 10.4 nM in experiment [2].
On to “(4S)-4′-fluoro-7′-(2-fluoro-3-pyridinyl)-2′-((2S)-tetrahydro-2H-pyran-2-yl)spiro[1,3-oxazole-4,9′-xanthen]-2-amine [Example 219]”, for which the IC50 in experiment [1] (average IC50) worked out at 6.2 nM; in experiment [2], 0.9 nM.
As to `COc1cc2c(c(F)c1F)Oc1ccc(Br)cc1[C@@]21COC(N)=N1` [Example 1003, (4S)-7′-bromo-3′,4′-difluoro-2′-methoxyspiro[1,3-oxazole-4,9′-xanthen]-2-amine], the IC50 was ≥ 10000 nM in experiment [1] (setting [4]) and 1090 nM in experiment [2].
For `CC1(C#Cc2cnc3c(c2)[C@@]2(COC(N)=N2)c2c(ccc(-c4ccc(F)nc4)c2F)O3)COC1` [Example 343, (5S)-6-fluoro-7-(6-fluoro-3-pyridinyl)-3-((3-methyl-3-oxetanyl)ethynyl)spiro[chromeno[2,3-b]pyridine-5,4′-[1,3]oxazol]-2′-amine], in that order: 1840 nM and 391 nM.
The matching figures for `CC(C)(O)C#Cc1cncc(-c2ccc3c(c2)[C@@]2(COC(N)=N2)c2cc(C4=CCOCC4)ncc2O3)c1` [Example 818, 4-(5-((5S)-2′-amino-3-(3,6-dihydro-2H-pyran-4-yl)spiro[chromeno[2,3-c]pyridine-5,4′-[1,3]oxazol]-7-yl)-3-pyridinyl)-2-methyl-3-butyn-2-ol]: 152 nM and 4.9 nM.
As for `NC1=NC2(CO1)c1cc(-c3cccnc3F)ccc1Oc1c(F)cc(C3=CCOCC3)nc12` (stereo not drawn) [Example 105, 2-(3,6-dihydro-2H-pyran-4-yl)-4-fluoro-8-(2-fluoropyridin-3-yl)-5′H-spiro[chromeno[3,2-b]pyridine-10,4′-oxazol]-2′-amine], the IC50 in experiment [1] (setting [3]) stood at 14.4 nM; in experiment [2] it was 3.5 nM.
With `NC1=N[C@@]2(CO1)c1cc(-c3cccc(Cl)c3F)ccc1Oc1ncc(C3=CCOCC3)cc12` [Example 170, (5S)-7-(3-chloro-2-fluorophenyl)-3-(3,6-dihydro-2H-pyran-4-yl)spiro[chromeno[2,3-b]pyridine-5,4′-[1,3]oxazol]-2′-amine], the IC50 stood at 18.3 nM in experiment [1] (setting [4]) and 1.5 nM in experiment [2].
